Results from PubChem BioAssay AID2060509 (Molecular Pharmacology Branch, DTP, NCI, 2025).
Several values for one entry are separate records, joined by “and”; a condition that tells them apart may be missing. Equal values may be shown once.

System: 485176-168-R4-J1-PDC spheroids with HUVEC/MSC, viability
Test: Anticancer human tumor 485176-168-R4-J1-PDC patient-derived pancreatic adenocarcinoma cell line growth inhibition [GQUAD]
Details: for viability, T/C: stronger effect = lower value
From the text: DNA G-quadruplex Stabilizer Agents in Combinations in Complex Spheroids
A high-throughput screen of multi-cell type tumor spheroids was designed to identify active combinations of DNA G-quadruplex stabilizer agents and targeted small molecules. Complex spheroids include a stromal component modeled by human endothelial cells (HUVEC) and fibroblasts modeled by human mesenchymal stem cells (MSCs). The concentration ranges selected for each drug and investigational agent were based upon clinically achievable concentrations if the clinical Cmax of the agent was known.
Compounds. The drugs and investigational agents: pidnarulex (CX-5461; NSC782164), APTO-253 (NSC789042), BRACO-19 (NSC847499), peposertib (NSC802822), ceralasertib (NSC780249), elimusertib (NSC800525), camonsertib (NSC841442), AZD-1390 (NSC803789), olaparib (NSC753686), talazoparib (NSC767125), ART-558 (NSC835418), sotorasib (NSC818433), MRTX-1133 (NSC836407), SN-38 (NSC673596), topotecan (NSC609699), etoposide (NSC141540), doxorubicin (NSC123127), gemcitabine (NSC613327), 5-fluorouracil (NSC19893), paclitaxel (NSC125973), vemurafenib (NSC761431), panobinostat (NSC761190), R-306465 (JNJ-16241199; NSC773264), adavosertib (NSC754352), TP-3654 (NSC805149), carboplatin (NSC241240), KSQ-4279 (NSC840948), and staurosporine (NSC755774) were obtained from the National Cancer Institute (NCI) Developmental Therapeutics Program Chemical Repository (34). The FDA-approved anticancer drug set is available from the NCI Developmental Therapeutics Program. […] The stock solutions were prepared in dimethyl sulfoxide (DMSO, Sigma-Aldrich, St. Louis, MO, cat. D2650) at 800-fold the tested concentration and stored at -70 degrees C prior to their use. All drugs and investigational agents were tested over a range starting from a high concentration at or near the clinical Cmax and decreasing in half-log increments. If the clinical Cmax for an agent had not been determined, the highest concentration tested was 10 microM.
2.3 Cell Culture. All cells were maintained in an incubator at 37 degrees C and 5% CO2 with 95% humidity. The PDC lines were cultured according to standard operating procedures established by the NCI PDMR. All PDCs were thawed and cultured in Matrigel-coated flasks prepared with a working solution of 1X Ham's F-12 nutrient mix, without supplementation (Invitrogen, cat. 11765054), 100 U/mL penicillin-streptomycin (Invitrogen, cat. 15140122), and 2.5% Matrigel (Corning Inc., cat. 354248) for the first three passages. The 857933-349-R-J2-PDC line was cultured in 6C/Colon 1B media, which includes advanced DMEM/F-12 (Thermo Fisher Scientific, cat. 12634028), 10 mM HEPES (Thermo Fisher Scientific, cat. 15630080), 1X GlutaMAX supplement (Thermo Fisher Scientific, cat. 35050061), 0.1 mg/mL primocin (InvivoGen, cat. ant-pm-2), 10% defined fetal bovine serum, heat inactivated (HyClone Laboratories Inc., cat. SH30070.03HI), 50% L-WRN conditioned media (ATCC, cat. CRL-3276), 1.25 mM N-Acetyl-L-cysteine (Sigma-Aldrich, cat. A9165), 10 mM nicotinamide (Sigma-Aldrich, cat. N0636), 1X B-27 supplement (Thermo Fisher Scientific, cat. 17504044), 1X N-2 supplement (Thermo Fisher Scientific, cat. 17502048), 10 microM Y-27632 dihydrochloride (Tocris Bioscience, cat. 1254), and 50 ng/mL human EGF recombinant protein (Thermo Fisher Scientific, cat. PHG0311). The 485176-168-R4-J1-PDC line was cultured in Panc media, which includes all 6C/Colon 1B media components plus 100 ng/mL human FGF-10 (Thermo Fisher Scientific, cat. 100-26), 500 nM SB-431542 (Selleckchem, cat. S1067), and gastrin (Tocris, cat. 3006).
[…]
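Further: spheroids exposed to compounds for seven days before readout.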
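Wherever viability, T/C is given: percent viability relative to DMSO vehicle control wells as 100%.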

Structure (SMILES): O=C(NO)c1cnc(N2CCN(S(=O)(=O)c3ccc4ccccc4c3)CC2)nc1 + CN(C)c1ccc(Nc2c3ccc(NC(=O)CCN4CCCC4)cc3nc3cc(NC(=O)CCN4CCCC4)ccc23)cc1
- IC50 (curve of first compound, second compound 0.0316 µM): 492 nM
- IC50 (curve of first compound, second compound 0.1 µM): 472 nM
- IC50 (curve of first compound, second compound 0.316 µM): 506 nM
- IC50 (curve of first compound, second compound 1 µM): 455 nM
- IC50 (curve of first compound, second compound 3.16 µM): 538 nM
- IC50 (curve of first compound, second compound 10 µM): 377 nM
- viability, T/C (second compound 0.0316 µM, first compound 0.0316 µM): 92.8%
- viability, T/C (second compound 0.0316 µM, first compound 0.1 µM): 84.5%
- viability, T/C (second compound 0.0316 µM, first compound 0.316 µM): 74.8%
- viability, T/C (second compound 0.0316 µM, first compound 1 µM): 10.4%
- viability, T/C (second compound 0.0316 µM, first compound 3.16 µM): 0.23%
- viability, T/C (second compound 0.0316 µM, first compound 10 µM): 0.27%
- viability, T/C (second compound 0.1 µM, first compound 0.0316 µM): 85.5%
- viability, T/C (second compound 0.1 µM, first compound 0.1 µM): 92.1%
- viability, T/C (second compound 0.1 µM, first compound 0.316 µM): 70.8%
- viability, T/C (second compound 0.1 µM, first compound 1 µM): 10.7%
- viability, T/C (second compound 0.1 µM, first compound 3.16 µM): 0.21%
- viability, T/C (second compound 0.1 µM, first compound 10 µM): 0.2%
- viability, T/C (second compound 0.316 µM, first compound 0.0316 µM): 112%
- viability, T/C (second compound 0.316 µM, first compound 0.1 µM): 85.6%
- viability, T/C (second compound 0.316 µM, first compound 0.316 µM): 78.5%
- viability, T/C (second compound 0.316 µM, first compound 1 µM): 9.79%
- viability, T/C (second compound 0.316 µM, first compound 3.16 µM): 0.19%
- viability, T/C (second compound 0.316 µM, first compound 10 µM): 0.17%
- viability, T/C (second compound 1 µM, first compound 0.0316 µM): 114%
- viability, T/C (second compound 1 µM, first compound 0.1 µM): 88.8%
- viability, T/C (second compound 1 µM, first compound 0.316 µM): 70.9%
- viability, T/C (second compound 1 µM, first compound 1 µM): 12.5%
- viability, T/C (second compound 1 µM, first compound 3.16 µM): 0.21%
- viability, T/C (second compound 1 µM, first compound 10 µM): 0.2%
- viability, T/C (second compound 3.16 µM, first compound 0.0316 µM): 91.2%
- viability, T/C (second compound 3.16 µM, first compound 0.1 µM): 98.4%
- viability, T/C (second compound 3.16 µM, first compound 0.316 µM): 84.5%
- viability, T/C (second compound 3.16 µM, first compound 1 µM): 9.67%
- viability, T/C (second compound 3.16 µM, first compound 3.16 µM): 0.25%
- viability, T/C (second compound 3.16 µM, first compound 10 µM): 0.2%
- viability, T/C (second compound 10 µM, first compound 0.0316 µM): 83.2%
- viability, T/C (second compound 10 µM, first compound 0.1 µM): 73.6%
- viability, T/C (second compound 10 µM, first compound 0.316 µM): 57.7%
- viability, T/C (second compound 10 µM, first compound 1 µM): 12.3%
- viability, T/C (second compound 10 µM, first compound 3.16 µM): 0.25%
- viability, T/C (second compound 10 µM, first compound 10 µM): 0.22%

Structure (SMILES): CC1COCCN1c1cc(-c2ccnn2C)c2ccnc(-c3ccn[nH]3)c2n1 (stereo unspecified)
- viability, T/C (compound 0.0316 µM): 76.2% and 71.6% and 87.6%
- viability, T/C (compound 0.1 µM): 39.2% and 47.5% and 37.8%
- viability, T/C (compound 0.316 µM): 18.1% and 14.2% and 15.9%
- viability, T/C (compound 1 µM): 10.4% and 10.2% and 9.3%
- viability, T/C (compound 3.16 µM): 11.3% and 9.69% and 10%
- viability, T/C (compound 10 µM): 11.9% and 12.4% and 10.7%
- IC50 (curve of compound): 71.6 nM and 88.8 nM and 75.5 nM

Structure (SMILES): C#Cc1c(F)ccc2cc(O)cc(-c3ncc4c(N5CC6CCC(C5)N6)nc(OCC56CCCN5CC(F)C6)nc4c3F)c12 (stereo unspecified)
- viability, T/C (compound 0.0316 µM): 95.2% and 109% and 105%
- viability, T/C (compound 0.1 µM): 89% and 86.3% and 108%
- viability, T/C (compound 0.316 µM): 92.7% and 88.4% and 95.7%
- viability, T/C (compound 1 µM): 89.8% and 104% and 109%
- viability, T/C (compound 3.16 µM): 104% and 96.4% and 97.2%
- viability, T/C (compound 10 µM): 95.4% and 93.5% and 104%
- IC50 (curve of compound): > 10000 nM

Structure (SMILES): CC(=O)O[C@H]1C(=O)[C@@]2(C)[C@H]([C@H](OC(=O)c3ccccc3)[C@]3(O)C[C@H](OC(=O)[C@H](O)[C@@H](NC(=O)c4ccccc4)c4ccccc4)C(C)=C1C3(C)C)[C@]1(OC(C)=O)CO[C@@H]1C[C@@H]2O
- viability, T/C (compound 0.0316 µM): 33.5% and 33.7% and 29.3%
- viability, T/C (compound 0.1 µM): 10.2% and 14.9% and 9.73%
- viability, T/C (compound 0.316 µM): 12.3% and 11.3% and 10.6%
- viability, T/C (compound 1 µM): 10.9% and 13.4% and 9.36%
- viability, T/C (compound 3.16 µM): 11% and 13.5% and 10.1%
- viability, T/C (compound 10 µM): 13.7% and 11.4% and 9.37%
- IC50 (curve of compound): < 31.6 nM

Structure (SMILES): O=C(NO)c1cnc(N2CCN(S(=O)(=O)c3ccc4ccccc4c3)CC2)nc1
- viability, T/C (compound 0.0316 µM): 83.4% and 107% and 97.9%
- viability, T/C (compound 0.1 µM): 99.5% and 73.2% and 76.1%
- viability, T/C (compound 0.316 µM): 67.6% and 78.2% and 61.2%
- viability, T/C (compound 1 µM): 7.2% and 12.1% and 11%
- viability, T/C (compound 3.16 µM): 0.3% and 0.31% and 0.2%
- viability, T/C (compound 10 µM): 0.3% and 0.31% and 0.29%
- IC50 (curve of compound): 443 nM and 512 nM and 378 nM

Structure (SMILES): CN(C)c1ccc(Nc2c3ccc(NC(=O)CCN4CCCC4)cc3nc3cc(NC(=O)CCN4CCCC4)ccc23)cc1
- viability, T/C (compound 0.0316 µM): 101% [middle of 12 runs]
- viability, T/C (compound 0.316 µM): 102% [middle of 12 runs]
- viability, T/C (compound 3.16 µM): 93.2% [middle of 12 runs]
- viability, T/C (compound 10 µM): 84.2% [middle of 12 runs]
- IC50 (compound alone, run of 03/26/2024): > 10000 nM

Structure (SMILES): C=CC(=O)N1CCN(c2nc(=O)n(-c3c(C)ccnc3C(C)C)c3nc(-c4c(O)cccc4F)c(F)cc23)C(C)C1 (stereo unspecified)
- viability, T/C (compound 0.0316 µM): 94.5% and 108% and 99.3%
- viability, T/C (compound 0.1 µM): 80.1% and 83.2% and 93.6%
- viability, T/C (compound 0.316 µM): 115% and 110% and 111%
- viability, T/C (compound 1 µM): 91.1% and 122% and 103%
- viability, T/C (compound 3.16 µM): 113% and 109% and 111%
- viability, T/C (compound 10 µM): 96.8% and 114% and 107%
- IC50 (curve of compound): > 10000 nM

Structure (SMILES): Nc1ccn(C2OC(CO)C(O)C2(F)F)c(=O)n1 (stereo unspecified)
- viability, T/C (compound 0.0316 µM): 76.8% and 70.1% and 75.6%
- viability, T/C (compound 0.1 µM): 16.7% and 16.1% and 15.4%
- viability, T/C (compound 0.316 µM): 11.3% and 7.32% and 9.64%
- viability, T/C (compound 1 µM): 10.3% and 9.3% and 8.42%
- viability, T/C (compound 3.16 µM): 10.7% and 12.2% and 11.5%
- viability, T/C (compound 10 µM): 13% and 12.5% and 11.1%
- IC50 (curve of compound): 52.9 nM and 48.4 nM and 51.6 nM

Structure (SMILES): CC1COCCN1c1cc(C2(S(C)(=N)=O)CC2)nc(-c2ccnc3[nH]ccc23)n1 (stereo unspecified)
- viability, T/C (compound 0.0316 µM): 91.4% and 102% and 101%
- viability, T/C (compound 0.1 µM): 98.7% and 102% and 97.1%
- viability, T/C (compound 0.316 µM): 93.1% and 96.5% and 101%
- viability, T/C (compound 1 µM): 56% and 70.9% and 59.4%
- viability, T/C (compound 3.16 µM): 36.2% and 34.4% and 72.4%
- viability, T/C (compound 10 µM): 14.5% and 16.4% and 12.8%
- IC50 (curve of compound): 1550 nM and 1930 nM and 3980 nM
